Data on five compounds can be found in ChEMBL document CHEMBL1157914, “5,5'-substituted indirubin-3'-oxime derivatives as potent cyclin-dependent kinase inhibitors with anticancer activity” (J Med Chem, 2010).

For orientation: solubility means the concentration that dissolves in the medium under given conditions. As usually defined, the inhibition is the percentage by which the read-out fell short of the control. As a reminder, the pIC50 is the negative decadic logarithm of the IC50, by convention in mol/L.

SMILES strings stand for the structures. pIC50: −log10 of the molar value. In brackets after ≈: the same amount, converted by molar mass. Activity calls are given as the source filed them. The calls are words filed in the database; no cut-off is given here.

Series [1] can be described thus: Cell cycle arrest in rat RK3E cells expressing k-ras assessed as accumulation at sub G0 phase at 2.5 uM after 24 hrs using propidium iodide stain by flow cytometry. The format is functional, cell-based. For orientation: Flow cytometry measures light scatter and fluorescence of single cells or particles in a stream.
The nature of series [2]: Solubility of compound in 2 equimolar NaOH and distilled water. The class given is physicochemical. Conditions: buffer.
The test system of series [3] is RK3E. Put plainly: Antitumor activity against rat RK3E cells expressing k-ras and GFP/Luc genes transplanted in Sprague-Dawley rat assessed as decrease of PCNA expression at 5 mg/kg, iv administered 5 days after tumor implantation for 5 times measured after 11 days by immunohistochemical staining relative to control. The class given is functional, organism-based. More on the design: dose 5 mg/kg.

Series [4] deals with Cyclin-dependent kinase 1/cyclin B1 (Homo sapiens) (UniProt P06493+P14635). Nature of the series: Inhibition of CDK1/cyclin B at 1 uM after 40 mins by lequid scintillation counting. The class given is protein-complex assay.
Sequence of Cyclin-dependent kinase 1/cyclin B1 (Homo sapiens) (P06493 whole entry, looked up): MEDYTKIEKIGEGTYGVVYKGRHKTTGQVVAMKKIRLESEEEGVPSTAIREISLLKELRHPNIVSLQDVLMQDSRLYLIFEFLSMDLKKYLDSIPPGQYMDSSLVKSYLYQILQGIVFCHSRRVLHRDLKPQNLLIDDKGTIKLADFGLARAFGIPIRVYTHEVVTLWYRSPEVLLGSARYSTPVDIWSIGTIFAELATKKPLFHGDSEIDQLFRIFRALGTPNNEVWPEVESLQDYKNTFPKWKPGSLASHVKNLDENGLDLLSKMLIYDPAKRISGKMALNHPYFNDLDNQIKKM
Sequence of Cyclin-dependent kinase 1/cyclin B1 (Homo sapiens) (P14635 whole entry, looked up): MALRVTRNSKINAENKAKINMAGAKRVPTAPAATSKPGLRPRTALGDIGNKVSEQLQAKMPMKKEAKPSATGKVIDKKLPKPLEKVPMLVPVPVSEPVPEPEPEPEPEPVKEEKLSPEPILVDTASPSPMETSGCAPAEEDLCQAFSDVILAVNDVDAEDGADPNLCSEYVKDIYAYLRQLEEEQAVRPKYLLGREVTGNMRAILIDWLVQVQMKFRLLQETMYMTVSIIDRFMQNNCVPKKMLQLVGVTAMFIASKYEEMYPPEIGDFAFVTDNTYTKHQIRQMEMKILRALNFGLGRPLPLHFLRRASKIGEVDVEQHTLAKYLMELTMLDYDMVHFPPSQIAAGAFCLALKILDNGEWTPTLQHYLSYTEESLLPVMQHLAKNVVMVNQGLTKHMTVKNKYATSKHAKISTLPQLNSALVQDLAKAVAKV
Series [5] can be described thus: Cell cycle arrest in rat RK3E cells expressing k-ras assessed as accumulation at G0/G1 phase at 1 uM after 24 hrs using propidium iodide stain by flow cytometry. The class given is functional, cell-based.
A short description of series [6]: Antitumor activity against rat RK3E cells expressing k-ras and GFP/Luc genes transplanted in Sprague-Dawley rat assessed as decrease in tumor volume at 5 mg/kg, iv administered 5 days after tumor implantation for 5 times measured after 48 hrs post dose relative to control. The format is functional. Set-up: scale not given: the % may be the effect or the level left.

Series [7] is described as follows: Solubility of compound in 3 equimolar NaOH and 0.1 N NaHCO3 buffer. The class given is physicochemical.
For the next series, the system named is Rattus norvegicus. Nature of the series: Toxicity in rat RK3E cells expressing k-ras and GFP/Luc genes transplanted in Sprague-Dawley rat assessed as change in body weight at 5 mg/kg, iv administered 5 days after tumor implantation for 5 times measured after 48 hrs post dose. The format is organism-based. Set-up: dose 5 mg/kg, route intravenous. The following applies: in vivo.

Series [8] is described as follows: Aqueous solubility of compound in water. The format is physicochemical. The following applies: buffer.
The target in series [9] is T1, High affinity nerve growth factor receptor (Homo sapiens, UniProt P04629). Nature of the series: Inhibition of recombinant TrKa at 1 uM preincubated for 15 mins by HTRF assay. On the technique in general: Time-resolved FRET reads energy transfer from a long-lived donor to a nearby acceptor.
Target sequence in this assay (P04629 33-796 limits assumed): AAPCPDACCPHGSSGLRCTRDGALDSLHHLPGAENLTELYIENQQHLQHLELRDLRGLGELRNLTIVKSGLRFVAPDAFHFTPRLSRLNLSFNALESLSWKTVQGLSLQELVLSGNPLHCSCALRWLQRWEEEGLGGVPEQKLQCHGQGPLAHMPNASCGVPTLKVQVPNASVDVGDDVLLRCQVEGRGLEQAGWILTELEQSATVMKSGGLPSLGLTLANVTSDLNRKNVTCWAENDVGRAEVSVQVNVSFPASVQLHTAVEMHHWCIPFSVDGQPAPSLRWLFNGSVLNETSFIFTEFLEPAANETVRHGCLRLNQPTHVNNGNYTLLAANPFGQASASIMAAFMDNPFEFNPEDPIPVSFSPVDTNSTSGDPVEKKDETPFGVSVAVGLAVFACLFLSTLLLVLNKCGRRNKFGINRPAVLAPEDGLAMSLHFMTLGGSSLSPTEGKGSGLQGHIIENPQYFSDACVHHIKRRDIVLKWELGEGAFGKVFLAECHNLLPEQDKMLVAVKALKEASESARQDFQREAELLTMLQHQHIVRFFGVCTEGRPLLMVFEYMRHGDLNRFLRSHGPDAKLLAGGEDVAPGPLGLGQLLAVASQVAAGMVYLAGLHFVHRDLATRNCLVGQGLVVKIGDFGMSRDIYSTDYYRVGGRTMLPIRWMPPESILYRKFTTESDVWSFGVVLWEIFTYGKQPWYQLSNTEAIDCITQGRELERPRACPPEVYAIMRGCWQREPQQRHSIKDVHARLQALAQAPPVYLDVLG
Series [10] can be described thus: Cell cycle arrest in rat RK3E cells expressing k-ras assessed as accumulation at S phase at 2.5 uM after 24 hrs using propidium iodide stain by flow cytometry. The format is functional, cell-based.
Series [11] deals with RK3E. Put plainly: Antitumor activity against rat RK3E cells expressing k-ras and GFP/Luc genes transplanted in Sprague-Dawley rat assessed as increase in apoptotic cells at 5 mg/kg, iv administered 5 days after tumor implantation for 5 times measured after 11 days by TUNEL assay relative to control. The format is functional, organism-based. Set-up: dose 5 mg/kg.
Series [12] deals with Cyclin-dependent kinase 2/cyclin E1 (Homo sapiens, UniProt P24941). Put plainly: Inhibition of CDK2/cyclin E. The format is protein-complex assay.
In series [13] the target is T1, High affinity nerve growth factor receptor. Put plainly: Inhibition of recombinant TrKa preincubated for 15 mins by HTRF assay.
Target sequence in this assay (P04629 whole entry): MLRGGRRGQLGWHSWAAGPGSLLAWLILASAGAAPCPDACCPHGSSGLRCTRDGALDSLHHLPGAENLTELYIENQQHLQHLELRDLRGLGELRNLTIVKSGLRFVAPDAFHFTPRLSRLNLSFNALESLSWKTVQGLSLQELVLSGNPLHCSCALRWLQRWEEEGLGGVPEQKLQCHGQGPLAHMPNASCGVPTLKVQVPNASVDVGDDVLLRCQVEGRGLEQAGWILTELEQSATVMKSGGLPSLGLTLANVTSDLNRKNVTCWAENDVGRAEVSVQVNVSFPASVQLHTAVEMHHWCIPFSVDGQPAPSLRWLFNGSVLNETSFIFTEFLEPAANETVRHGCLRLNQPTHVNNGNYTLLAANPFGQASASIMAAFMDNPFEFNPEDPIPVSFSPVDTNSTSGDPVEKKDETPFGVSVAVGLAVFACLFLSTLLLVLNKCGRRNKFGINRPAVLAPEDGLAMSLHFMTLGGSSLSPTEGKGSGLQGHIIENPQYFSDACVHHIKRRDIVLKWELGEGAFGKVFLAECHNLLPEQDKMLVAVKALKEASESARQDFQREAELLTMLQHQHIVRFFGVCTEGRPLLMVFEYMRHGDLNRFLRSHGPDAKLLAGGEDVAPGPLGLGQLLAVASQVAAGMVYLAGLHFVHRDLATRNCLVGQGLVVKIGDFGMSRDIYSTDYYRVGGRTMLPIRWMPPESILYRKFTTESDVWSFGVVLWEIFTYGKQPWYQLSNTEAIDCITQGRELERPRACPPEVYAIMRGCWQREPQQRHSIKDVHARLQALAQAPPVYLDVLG
A short description of series [14]: Cell cycle arrest in rat RK3E cells expressing k-ras assessed as accumulation at G0/G1 phase at 2.5 uM after 24 hrs using propidium iodide stain by flow cytometry. The class given is functional, cell-based.
Series [15] deals with Cyclin-dependent kinase 2/cyclin E1 (Homo sapiens) (UniProt P24864+P24941). Put plainly: Inhibition of CDK2/cyclin E as percent residual activity. The format is protein-complex assay. More on the design: Residual activity / inhibition: concentration or dose not given beside the values.
The nature of series [16]: Cell cycle arrest in rat RK3E cells expressing k-ras assessed as accumulation at sub G0 phase at 1 uM after 24 hrs using propidium iodide stain by flow cytometry. The format is functional, cell-based.
In another series the test system is KB. Put plainly: Antiproliferative activity against human KB cells after 3 days by SRB assay. The format is functional, cell-based. Conditions: 72 h. For orientation: Sulforhodamine B stains cellular protein and so reports cell mass.
Series [17] deals with Inhibitor of nuclear factor kappa-B kinase subunit beta (Homo sapiens, UniProt O14920). Nature of the series: Inhibition of recombinant IKK-beta preincubated for 15 mins by HTRF assay.
Sequence of Inhibitor of nuclear factor kappa-B kinase subunit beta (O14920 whole entry): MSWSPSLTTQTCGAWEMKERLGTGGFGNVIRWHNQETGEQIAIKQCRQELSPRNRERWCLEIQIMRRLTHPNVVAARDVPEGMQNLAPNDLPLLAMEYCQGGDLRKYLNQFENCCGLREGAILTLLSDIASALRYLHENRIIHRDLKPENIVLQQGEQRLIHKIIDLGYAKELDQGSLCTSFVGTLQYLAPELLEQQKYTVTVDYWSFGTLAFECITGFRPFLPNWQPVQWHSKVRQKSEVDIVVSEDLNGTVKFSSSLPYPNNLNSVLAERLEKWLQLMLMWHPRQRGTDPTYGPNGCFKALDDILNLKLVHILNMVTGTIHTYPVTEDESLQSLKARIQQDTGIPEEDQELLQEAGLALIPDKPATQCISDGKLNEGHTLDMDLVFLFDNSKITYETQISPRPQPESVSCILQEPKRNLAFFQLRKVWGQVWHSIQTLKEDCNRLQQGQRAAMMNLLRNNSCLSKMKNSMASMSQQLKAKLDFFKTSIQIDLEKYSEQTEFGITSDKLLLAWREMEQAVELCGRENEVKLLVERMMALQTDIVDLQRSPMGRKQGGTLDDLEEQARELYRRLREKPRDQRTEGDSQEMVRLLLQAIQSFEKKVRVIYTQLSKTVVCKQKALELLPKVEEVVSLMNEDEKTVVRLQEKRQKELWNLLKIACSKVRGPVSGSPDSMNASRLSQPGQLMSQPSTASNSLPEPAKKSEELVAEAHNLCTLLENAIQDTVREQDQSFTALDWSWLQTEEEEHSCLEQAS
The target in series [18] is Cyclin-dependent kinase 1/cyclin B1 (Homo sapiens, UniProt P06493). Put plainly: Inhibition of CDK1/cyclin B after 40 mins by liquid scintillation counting. The class given is protein-complex assay.
The next series has as its system MCF7. Put plainly: Antiproliferative activity against human MCF7 cells after 3 days by SRB assay. The format is functional, cell-based. The following applies: MCF7, 72 h.
A short description of series [19]: Cell cycle arrest in rat RK3E cells expressing k-ras assessed as accumulation at S phase at 1 uM after 24 hrs using propidium iodide stain by flow cytometry. The format is functional, cell-based.
Series [20] can be described thus: Solubility of compound in 3 equimolar NaOH and distilled water. The class given is physicochemical. Conditions: buffer.
The test system of series [21] is RK3E. Nature of the series: Antitumor activity against rat RK3E cells expressing k-ras and GFP/Luc genes transplanted in Sprague-Dawley rat assessed as decrease of tumor growth at 5 mg/kg, iv administered 5 days after tumor implantation for 5 times measured on day 10 by luciferin bioluminescence assay. The class given is functional, organism-based. Set-up: dose 5 mg/kg.

Series [22] can be described thus: Cell cycle arrest in rat RK3E cells expressing k-ras assessed as accumulation at G2/M phase at 1 uM after 24 hrs using propidium iodide stain by flow cytometry. The class given is functional, cell-based.
The nature of series [23]: Cell cycle arrest in rat RK3E cells expressing k-ras assessed as accumulation at G2/M phase at 2.5 uM after 24 hrs using propidium iodide stain by flow cytometry. The format is functional, cell-based.
In series [24] the test system is Hepatocyte growth factor receptor (Homo sapiens), P08581 [M1250T]. Nature of the series: Inhibition of recombinant Met M1250T mutant at 10 uM preincubated for 15 mins by HTRF assay.
The nature of series [25]: Antiproliferative activity against human […] cells after 3 days by SRB assay. The class given is functional, cell-based. Conditions: 72 h.
The target of series [26] is Insulin receptor (Homo sapiens) (UniProt P06213). Nature of the series: Inhibition of insulin receptor at 10 uM preincubated for 15 mins by HTRF assay.
Series [27] has as its target Vascular endothelial growth factor receptor 2 (Homo sapiens) (UniProt P35968). Nature of the series: Inhibition of recombinant VEGFR2 at 10 uM preincubated for 15 mins by HTRF assay.
Series [28] concerns the target Inhibitor of nuclear factor kappa-B kinase subunit beta (Homo sapiens) (UniProt O14920). Nature of the series: Inhibition of recombinant IKK-beta at 10 uM preincubated for 15 mins by HTRF assay.
Another series has as its system K562. Nature of the series: Antiproliferative activity against human K562 cells after 3 days by SRB assay. Conditions: K562, 72 h. The class given is functional, cell-based.
The target in series [29] is Macrophage-stimulating protein receptor (Homo sapiens) (UniProt Q04912). Nature of the series: Inhibition of recombinant Ron at 10 uM preincubated for 15 mins by HTRF assay.
For series [30], the target named is Aurora kinase A (Homo sapiens) (UniProt O14965). Put plainly: Inhibition of recombinant auroraA at 10 uM preincubated for 15 mins by HTRF assay.
Sequence of Aurora kinase A (Homo sapiens) (O14965 whole entry): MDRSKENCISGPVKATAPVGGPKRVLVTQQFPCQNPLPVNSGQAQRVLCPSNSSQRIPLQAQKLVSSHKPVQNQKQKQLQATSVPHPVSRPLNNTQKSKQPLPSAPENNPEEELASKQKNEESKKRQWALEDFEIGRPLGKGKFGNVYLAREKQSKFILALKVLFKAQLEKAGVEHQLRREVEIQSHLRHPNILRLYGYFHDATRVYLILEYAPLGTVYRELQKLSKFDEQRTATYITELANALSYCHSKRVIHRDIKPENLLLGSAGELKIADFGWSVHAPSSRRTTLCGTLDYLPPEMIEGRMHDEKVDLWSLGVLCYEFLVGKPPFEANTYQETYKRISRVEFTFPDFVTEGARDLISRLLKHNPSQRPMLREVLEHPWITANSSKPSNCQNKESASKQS
The target of series [31] is Hepatocyte growth factor receptor (Homo sapiens) (UniProt P08581). Nature of the series: Inhibition of recombinant c-met at 10 uM preincubated for 15 mins by HTRF assay.
Sequence of Hepatocyte growth factor receptor (Homo sapiens) (P08581 whole entry): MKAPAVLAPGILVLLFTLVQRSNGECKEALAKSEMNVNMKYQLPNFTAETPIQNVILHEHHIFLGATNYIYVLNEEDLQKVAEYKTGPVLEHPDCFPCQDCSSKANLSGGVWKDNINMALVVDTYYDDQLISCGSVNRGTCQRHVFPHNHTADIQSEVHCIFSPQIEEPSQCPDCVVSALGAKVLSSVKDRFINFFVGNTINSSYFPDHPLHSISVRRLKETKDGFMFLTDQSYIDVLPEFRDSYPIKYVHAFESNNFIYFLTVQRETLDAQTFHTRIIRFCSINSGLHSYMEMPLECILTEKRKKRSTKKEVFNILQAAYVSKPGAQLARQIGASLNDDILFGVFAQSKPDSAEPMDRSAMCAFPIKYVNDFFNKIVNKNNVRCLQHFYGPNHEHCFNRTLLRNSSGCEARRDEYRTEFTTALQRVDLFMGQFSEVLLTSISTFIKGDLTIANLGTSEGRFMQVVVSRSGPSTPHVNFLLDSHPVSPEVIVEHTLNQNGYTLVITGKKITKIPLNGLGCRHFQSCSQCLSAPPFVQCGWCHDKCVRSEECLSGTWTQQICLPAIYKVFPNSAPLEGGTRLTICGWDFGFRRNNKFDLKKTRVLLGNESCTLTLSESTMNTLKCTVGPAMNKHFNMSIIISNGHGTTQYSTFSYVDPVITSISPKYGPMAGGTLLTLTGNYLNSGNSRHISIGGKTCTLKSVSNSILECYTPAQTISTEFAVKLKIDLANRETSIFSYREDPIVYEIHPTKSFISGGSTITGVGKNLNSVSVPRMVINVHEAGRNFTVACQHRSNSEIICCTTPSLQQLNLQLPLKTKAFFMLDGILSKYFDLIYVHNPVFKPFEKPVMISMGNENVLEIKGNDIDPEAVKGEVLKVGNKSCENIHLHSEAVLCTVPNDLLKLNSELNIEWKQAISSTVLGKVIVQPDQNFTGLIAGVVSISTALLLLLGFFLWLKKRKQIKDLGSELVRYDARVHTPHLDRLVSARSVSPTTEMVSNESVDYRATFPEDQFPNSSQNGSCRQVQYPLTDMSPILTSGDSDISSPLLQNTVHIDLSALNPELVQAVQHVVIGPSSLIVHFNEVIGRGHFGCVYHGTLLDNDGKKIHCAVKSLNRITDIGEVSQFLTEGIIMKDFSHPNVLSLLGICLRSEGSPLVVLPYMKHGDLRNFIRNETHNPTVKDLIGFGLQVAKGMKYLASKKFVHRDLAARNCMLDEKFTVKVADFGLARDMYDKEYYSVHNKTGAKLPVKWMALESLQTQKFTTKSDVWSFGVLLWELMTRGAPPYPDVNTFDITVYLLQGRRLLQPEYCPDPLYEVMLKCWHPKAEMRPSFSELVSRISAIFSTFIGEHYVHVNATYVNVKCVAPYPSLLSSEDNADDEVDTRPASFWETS
Series [32] can be described thus: Selectivity ratio for CDK2/cyclinE over CDK1/cyclin B.
For the next series, the system named is A549. Put plainly: Antiproliferative activity against human A549 cells after 3 days by SRB assay. The format is functional, cell-based. The following applies: A549, 72 h.
For series [33], the target named is Phosphatidylinositol 4,5-bisphosphate 3-kinase catalytic subunit gamma isoform (Homo sapiens) (UniProt P48736). Put plainly: Inhibition of human PI3Kgamma at 10 uM preincubated for 15 mins by HTRF assay.
The subject of the next series is HT-1080. Put plainly: Antiproliferative activity against human HT1080 cells after 3 days by SRB assay. The class given is functional, cell-based. Conditions: HT-1080, 72 h.
Series [34] has as its target Epidermal growth factor receptor (Homo sapiens) (UniProt P00533). Nature of the series: Inhibition of recombinant EGFR at 10 uM preincubated for 15 mins by HTRF assay.
Another series deals with SNU-638. Put plainly: Antiproliferative activity against human SNU638 cells after 3 days by SRB assay. The format is functional, cell-based. Conditions: SNU-638, 72 h.
Series [35] concerns the target T1, High affinity nerve growth factor receptor. Nature of the series: Inhibition of recombinant TrKa at 10 uM preincubated for 15 mins by HTRF assay.
Target sequence in this assay (P04629 33-796 limits assumed): as the sequence (P04629 33-796 limits assumed) above

Sequence of Inhibitor of nuclear factor kappa-B kinase subunit beta (Homo sapiens) (O14920 whole entry): as the sequence (O14920 whole entry) above

Regarding `O=C1Nc2ccc([N+](=O)[O-])cc2/C1=C1/Nc2ccc(O)cc2/C1=N/O`, the Activity is 5.59% in series [1]; 57.7% in [5]; 84.3% in [6]; “Non-toxic” in the series on Rattus norvegicus; 9.66% in series [10]; 74.5% in series [14]. In addition, the Activity worked out at 8.16% in [16], 7.96% in series [19], 8.16% in series [22] and 5.67% in series [23]. Moreover, the solubility in series [2] was 2700 µg/mL (≈ 7980 µM); in series [7], 200 µg/mL (≈ 591 µM); in [8], 10 µg/mL (≈ 29.6 µM); in series [20], 3000 µg/mL (≈ 8870 µM). Besides, the result in the series on RK3E [3], in the series with RK3E [11] and with RK3E [21] was Active. The inhibition entry in [4] is “Active”. For the same compound, the inhibition in series [9] came out at 9%. Further, the pIC50 is 8.72 in series [12]; 5.40 in series [13]; 5.88 in the series with KB; 5.00 in series [17]; 7.89 in series [18]; 5.92 with MCF7. The compound also gave a Residual activity in [15] of 90%.

Regarding `O=C1Nc2ccc([N+](=O)[O-])cc2/C1=C1/Nc2ccc(Cl)cc2/C1=N/O`, the inhibition entry in series [24], in [26], in series [27], in series [28], in series [29] and in series [30] was “inactive” throughout. In addition, the inhibition entry in series [31], in series [33], in [34] and in series [35] was “inactive” in each case. For the same compound, the pIC50 in [25] is 6.48; in the series on K562, 6.25; in series [12], 7.63; with A549, 4.81; in the series with KB it was 5.95; with MCF7, 6.29. The negative-log IC50 (pIC50) with HT-1080 is 5.90; in the series with SNU-638 it was 5.94. For the same compound, the Selectivity ratio in [32] was 8. This compound registered a Residual activity in series [15] of 90%.

Turning to `O=Nc1c(-c2c(O)[nH]c3ccc([N+](=O)[O-])cc23)[nH]c2ccccc12`, the solubility in series [2] was below 100 µg/mL; in series [7], below 100 µg/mL; in [8], “Insoluble”; in series [20], below 100 µg/mL. The pIC50 in series [12] was 8.13.

`O=C1Nc2ccc(OC(F)(F)F)cc2/C1=C1/Nc2ccc(Cl)cc2/C1=N/O`: the result in series [4] and in series [15] was inactive. The negative-log IC50 (pIC50) in series [25] was 5.42; in the series on K562 it was below 4.70; in series [12] it was 7.12; with A549 it was below 4.70; in the series on KB, 5.55; in the series with MCF7, 5.37. The pIC50 in the series with HT-1080 was 4.75; in the series on SNU-638, 5.57. For the same compound, in series [32], the Selectivity ratio was determined as 6.

In the case of `O=C1Nc2ccc([N+](=O)[O-])cc2/C1=C1/Nc2ccc(Br)cc2/C1=N/O`, the solubility was below 100 µg/mL in series [2], below 100 µg/mL in [7], “Insoluble” in series [8] and below 100 µg/mL in series [20]. Moreover, the pIC50 is 6.35 in series [25]; 6.11 in the series on K562; 4.77 in the series with A549; 5.94 with KB; 6.02 in the series with MCF7; 5.84 in the series with HT-1080. In the series with SNU-638, this compound had a pIC50 of 5.94.
